# Laboratory results: patent publication US10174002B2, “Pyridine derivatives as CFTR modulators” (NuBridge BioSciences, priority 2015, dated 2019)
# Counter-ions that a name gives are not always drawn.
# Target: T1, ΔF508 mutant CFTR (Homo sapiens, UniProt P13569, DEL508-508)
# T1 construct: expressed in transfected cells; host or cells: Fischer rat thyroid (FRT) cells, co-expressing the halide-sensitive YFP-H148Q/I152L
# Experiment: Fluorescence Assay of ΔF508 mutant CFTR activity (halide-sensitive YFP quenching by iodide influx in FRT cells)
# Assay type: cell-based
# Parameters: key: fold of mean activity with forskolin alone (I− quenching rate)
# Conditions: test compounds 20 μM with forskolin 20 μM, 20 min; FRT cells expressing ΔF508-CFTR and YFP-H148Q/I152L, incubated at 27° C. 20-24 h; rate of fluorescence quenching by I−, normalized to mean activity with forskolin alone
# Excerpt: The ΔF508 mutant CFTR activities of the CFTR modulators are detected using the Fluorescence Assay developed by Pedemonte (Pedemonte N., et al., Antihypertensive 1,4-dihydropyridines as correctors of the cystic fibrosis transmembrane conductance regulator channel gating defect caused by cystic fibrosis mutations, Mol. Pharmacol., 2005, 68, 1736-1746).
# Fischer rat thyroid (FRT) cells, stably transfected with ΔF508 were retransfected with the YFP-H148Q/I152L fluorescent protein. The cells were plated (100,000 cells/well) on black 96-well microplates with clear plastic bottom (Corning Life Sciences, Acton, Mass.).
# The 96-well microplates containing FRT cells expressing F508-CFTR and the halide-sensitive YFP were incubated at 27° C. for 20 to 24 h to allow rescue of the mutant protein to the plasma membrane. After incubation, cells were washed with PBS (containing 137 mM NaCl, 2.7 mM KCl, 8.1 mM Na2HPO4, 1.5 mM KH2PO4, 1 mM CaCl2, and 0.5 mM MgCl2) and stimulated for 20 min with forskolin (20 μM) and test compounds (20 μM) in a final volume of 60 μl. Microplates were then transferred to a microplate reader for CFTR activity determination. Each assay consisted of a continuous 14-s fluorescence reading (5 points per second) with 2 s before and 12 s after injection of 165 μl of an iodide-containing solution (PBS with Cl^− replaced by I^−). Final iodide concentration in the wells was 100 mM. […] To determine I^− influx rate, the final 11 s of the data for each well were fitted with an exponential function to extrapolate initial slope. CFTR activity was determined by measuring the rate of fluorescence quenching induced by extracellular addition of I^−. Data are normalized to the mean activity measured in the presence of forskolin alone.
# T1 sequence (P13569 with tags, fused parts or gaps DEL508-508): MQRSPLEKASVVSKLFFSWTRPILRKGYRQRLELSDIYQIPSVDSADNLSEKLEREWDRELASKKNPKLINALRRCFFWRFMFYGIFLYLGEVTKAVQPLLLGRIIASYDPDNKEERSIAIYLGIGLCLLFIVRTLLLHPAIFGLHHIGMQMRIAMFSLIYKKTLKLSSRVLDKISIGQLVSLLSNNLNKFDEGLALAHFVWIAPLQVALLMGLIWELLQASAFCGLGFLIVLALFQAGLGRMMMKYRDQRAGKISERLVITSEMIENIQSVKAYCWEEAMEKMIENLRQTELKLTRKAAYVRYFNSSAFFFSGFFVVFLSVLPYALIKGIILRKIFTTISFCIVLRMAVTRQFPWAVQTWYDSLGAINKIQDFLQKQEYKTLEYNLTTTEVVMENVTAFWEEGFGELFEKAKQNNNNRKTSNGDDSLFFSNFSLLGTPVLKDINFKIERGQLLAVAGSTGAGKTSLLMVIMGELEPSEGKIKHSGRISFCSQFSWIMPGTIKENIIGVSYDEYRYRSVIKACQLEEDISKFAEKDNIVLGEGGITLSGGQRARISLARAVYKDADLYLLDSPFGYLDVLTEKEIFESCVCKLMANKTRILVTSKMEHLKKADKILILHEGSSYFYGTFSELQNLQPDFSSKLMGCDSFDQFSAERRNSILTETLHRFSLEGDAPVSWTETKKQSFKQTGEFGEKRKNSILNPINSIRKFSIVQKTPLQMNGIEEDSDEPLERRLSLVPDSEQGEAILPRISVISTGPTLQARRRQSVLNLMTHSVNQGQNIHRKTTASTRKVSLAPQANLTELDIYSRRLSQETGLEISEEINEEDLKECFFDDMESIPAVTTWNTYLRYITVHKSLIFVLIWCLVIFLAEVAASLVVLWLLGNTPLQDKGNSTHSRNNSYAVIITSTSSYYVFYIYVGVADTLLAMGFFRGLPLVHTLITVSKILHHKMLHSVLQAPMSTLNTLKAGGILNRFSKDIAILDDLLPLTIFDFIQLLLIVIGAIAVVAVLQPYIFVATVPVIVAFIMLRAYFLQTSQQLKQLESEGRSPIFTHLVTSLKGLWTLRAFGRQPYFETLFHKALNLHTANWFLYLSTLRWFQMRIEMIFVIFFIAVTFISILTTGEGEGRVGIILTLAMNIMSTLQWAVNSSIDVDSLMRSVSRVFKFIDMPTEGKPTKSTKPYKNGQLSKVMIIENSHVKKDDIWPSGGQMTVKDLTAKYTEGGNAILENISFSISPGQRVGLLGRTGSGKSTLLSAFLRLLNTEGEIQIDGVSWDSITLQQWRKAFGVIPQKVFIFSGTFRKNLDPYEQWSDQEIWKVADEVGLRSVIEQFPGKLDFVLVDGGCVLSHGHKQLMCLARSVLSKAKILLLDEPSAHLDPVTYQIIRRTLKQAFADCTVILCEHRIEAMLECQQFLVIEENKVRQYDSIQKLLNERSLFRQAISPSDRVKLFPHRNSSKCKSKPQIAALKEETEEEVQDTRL
row,SMILES,CFTR Activity
1,"Cl.NCC(CCl)COc1ccncc1NC(=O)c1nc(-c2c(F)cccc2F)c(F)cc1N (stereo not shown) [Example 34, 3-amino-N-(4-(3-amino-2-(chloromethyl)propoxy)pyridin-3-yl)-6-(2,6-difluorophenyl)-5-fluoropicolinamide hydrochloride]",2.3
2,"CC(C)(O)CCCOc1ccncc1NC(=O)c1ccc(F)c(-c2c(F)cccc2F)n1 [Example 20, 6-(2,6-difluorophenyl)-5-fluoro-N-(4-((4-hydroxy-4-methylpentyl)oxy)pyridin-3-yl)picolinamide]",0.1
3,"Cl.Nc1cc(F)c(-c2c(F)cccc2F)nc1C(=O)Nc1cnccc1OC1CCCC(N)C1 (stereo not shown) [Example 37, 3-amino-N-(4-((3-aminocyclohexyl)oxy)pyridin-3-yl)-6-(2,6-difluorophenyl)-5-fluoropicolinamide hydrochloride]",4.8
4,"Cl.NCC(CCl)COc1ccncc1NC(=O)c1ccc(F)c(-c2c(F)cccc2F)n1 (stereo not shown) [Example 30, N-(4-(3-amino-2-(chloromethyl)propoxy)pyridin-5-yl)-6-(2,6-difluorophenyl)-5-fluoropicolinamide hydrochloride]",1.6
5,"Cl.NCCCCOc1ccncc1NC(=O)c1nc(-c2c(F)cccc2F)c(F)cc1N [Example 36, 3-amino-N-(4-(4-aminobutoxy)pyridin-3-yl)-6-(2,6-difluorophenyl)-5-fluoropicolinamide hydrochloride]",2.3
6,"Cl.Nc1cc(C(F)(F)F)c(-c2c(F)cccc2F)nc1C(=O)Nc1cnccc1OC1CCNCC1 [Example 51, 3-amino-6-(2,6-difluorophenyl)-N-(4-(piperidin-4-yloxy)pyridin-3-yl)-5-(trifluoromethyl)picolinamide hydrochloride]",4.8
7,"Cl.O=C(Nc1cnccc1OC1CCNC1)c1ccc(F)c(-c2c(F)cccc2F)n1 (stereo not shown) [Example 4, 6-(2,6-difluorophenyl)-5-fluoro-N-(4-(pyrrolidin-3-yloxy)pyridin-3-yl)picolinamide hydrochloride]",0.9
8,"Cl.NCC(CO)COc1ccncc1NC(=O)c1nc(-c2c(F)cccc2F)c(F)cc1N (stereo not shown) [Example 57, 3-amino-N-(4-(3-amino-2-(hydroxymethyl)propoxy)pyridin-3-yl)-6-(2,6-difluorophenyl)-5-fluoropicolinamide hydrochloride]",2.1
9,"Cl.Nc1cc(F)c(-c2c(F)cccc2F)nc1C(=O)Nc1cnccc1OC1CCCNCC1 (stereo not shown) [Example 26, 3-amino-N-(4-(azepan-4-yloxy)pyridin-3-yl)-6-(2,6-difluorophenyl)-5-fluoropicolinamide hydrochloride]",4.3
10,"Cl.Nc1cc(F)c(-c2c(F)cccc2F)nc1C(=O)Nc1cnccc1O[C@H]1CC[C@H](N)CC1 [Example 27, 3-amino-N-(4-(((1r,4r)-4-aminocyclohexyl)oxy)pyridin-3-yl)-6-(2,6-difluorophenyl)-5-fluoropicolinamide hydrochloride]",4.5
11,"Cl.Nc1cc(F)c(-c2c(F)cccc2F)nc1C(=O)Nc1cnccc1OCC1CCNCC1 [Example 23, 3-amino-6-(2,6-difluorophenyl)-5-fluoro-N-(4-(piperidin-4-ylmethoxy)pyridin-3-yl)picolinamide hydrochloride]",2.5
12,"Cl.O=C(Nc1cnccc1OC1CCCNCC1)c1ccc(F)c(-c2c(F)cccc2F)n1 (stereo not shown) [Example 6, N-(4-(azepan-4-yloxy)pyridin-3-yl)-6-(2,6-difluorophenyl)-5-fluoropicolinamide hydrochloride]",1.9
13,"Cl.Nc1cc(F)c(-c2ccccc2)nc1C(=O)Nc1cnccc1OC1CCNC1 (stereo not shown) [Example 38, 3-amino-5-fluoro-6-phenyl-N-(4-(pyrrolidin-3-yloxy)pyridin-3-yl)picolinamide hydrochloride]",1.7
14,"Cl.Nc1cc(C(F)(F)F)c(-c2c(F)cccc2F)nc1C(=O)Nc1cnccc1OC1CCCNCC1 (stereo not shown) [Example 48, 3-amino-N-(4-(azepan-4-yloxy)pyridin-3-yl)-6-(2,6-difluorophenyl)-5-(trifluoromethyl)picolinamide hydrochloride]",5.2
15,"CC(O)CCOc1ccncc1NC(=O)c1ccc(F)c(-c2c(F)cccc2F)n1 (stereo not shown) [Example 18, 6-(2,6-difluorophenyl)-5-fluoro-N-(4-(3-hydroxybutoxy)pyridin-3-yl)picolinamide]",0.1
16,"Cl.Nc1cc(F)c(-c2c(F)cccc2F)nc1C(=O)Nc1cnccc1OC1CNC1 [Example 31, 3-amino-N-(4-(azetidin-3-yloxy)pyridin-3-yl)-6-(2,6-difluorophenyl)-5-fluoropicolinamide hydrochloride]",1.1
17,"Cl.O=C(Nc1cnccc1OCC1CCNCC1)c1ccc(F)c(-c2c(F)cccc2F)n1 [Example 1, 6-(2,6-difluorophenyl)-5-fluoro-N-(4-(piperidin-4-ylmethoxy)pyridin-3-yl)picolinamide hydrochloride]",1.4
18,"Cl.NCC(CO)COc1ccncc1NC(=O)c1nc(-c2c(F)cccc2F)c(C(F)(F)F)cc1N (stereo not shown) [Example 59, 3-amino-N-(4-(3-amino-2-(hydroxymethyl)propoxy)pyridin-3-yl)-6-(2,6-difluorophenyl)-5-(trifluoromethyl)picolinamide hydrochloride]",3.1
19,"Cl.Nc1cc(C(F)(F)F)c(-c2c(F)cccc2F)nc1C(=O)Nc1cnccc1OC1CCCC(N)C1 (stereo not shown) [Example 61, 3-amino-N-(4-((3-aminocyclohexyl)oxy)pyridin-3-yl)-6-(2,6-difluorophenyl)-5-(trifluoromethyl)picolinamide hydrochloride]",6.1
20,"Cl.NC1CCCC(Oc2ccncc2NC(=O)c2ccc(C(F)(F)F)c(-c3c(F)cccc3F)n2)C1 (stereo not shown) [Example 60, N-(4-((3-aminocyclohexyl)oxy)pyridin-3-yl)-6-(2,6-difluorophenyl)-5-(trifluoromethyl)picolinamide hydrochloride]",5.7
21,"NCC(CCl)Oc1ccncc1NC(=O)c1ccc(F)c(-c2c(F)cccc2F)n1 (stereo not shown) [Example 29, N-(4-((1-amino-3-chloropropan-2-yl)oxy)pyridin-5-yl)-6-(2,6-difluorophenyl)-5-fluoropicolinamide hydrochloride]",1.8
22,"Cl.O=C(Nc1cnccc1OCC1CCNC1)c1ccc(F)c(-c2c(F)cccc2F)n1 (stereo not shown) [Example 8, 6-(2,6-difluorophenyl)-5-fluoro-N-(4-(pyrrolidin-3-ylmethoxy)pyridin-3-yl)picolinamide hydrochloride]",0.5
23,"Cl.NCC(CO)COc1ccncc1NC(=O)c1ccc(F)c(-c2c(F)cccc2F)n1 (stereo not shown) [Example 56, N-(4-(3-amino-2-(hydroxymethyl)propoxy)pyridin-3-yl)-6-(2,6-difluorophenyl)-5-fluoropicolinamide hydrochloride]",2.4
24,"Cl.NCC(CO)COc1ccncc1NC(=O)c1ccc(C(F)(F)F)c(-c2c(F)cccc2F)n1 (stereo not shown) [Example 58, N-(4-(3-amino-2-(hydroxymethyl)propoxy)pyridin-3-yl)-6-(2,6-difluorophenyl)-5-(trifluoromethyl)picolinamide hydrochloride]",2.6
25,"COc1cccc(F)c1-c1nc(C(=O)Nc2cnccc2OC2CCCNCC2)ccc1F.Cl (stereo not shown) [Example 41, N-(4-(azepan-4-yloxy)pyridin-3-yl)-5-fluoro-6-(2-fluoro-6-methoxyphenyl)picolinamide hydrochloride]",2.0
26,"O=C(Nc1cnccc1OCCC(O)CO)c1ccc(F)c(-c2c(F)cccc2F)n1 (stereo not shown) [Example 21, 6-(2,6-difluorophenyl)-N-(4-(3,4-dihydroxybutoxy)pyridin-3-yl)-5-fluoropicolinamide]",0.1
27,"CNCCCCOc1ccncc1NC(=O)c1ccc(F)c(-c2c(F)cccc2F)n1.Cl [Example 16, 6-(2,6-difluorophenyl)-5-fluoro-N-(4-(4-(methylamino)butoxy)pyridin-3-yl)picolinamide hydrochloride]",0.6
28,"CNCCCOc1ccncc1NC(=O)c1ccc(F)c(-c2c(F)cccc2F)n1.Cl [Example 13, 6-(2,6-difluorophenyl)-5-fluoro-N-(4-(3-(methylamino)propoxy)pyridin-3-yl)picolinamide hydrochloride]",0.6
